Data as given in the supplement of paper PMC10307832.

Tests used:
Experiment in all cases: relative viability (nuclei count vs DMSO), 5 days (fraction); higher = more cells survive
[1] = tested on: 201T
Procedure, shortened: (§1)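 Dosing by pin tool came one day after lung cancer cell lines were seeded in 1536-well plates, using either one drug or a fixed anchor-drug dose plus five library-drug doses (not always all listed) in √10 steps. After 5 days, nuclei were counted on 4× images. Relative viability is treated-well nuclei count divided by vehicle-well nuclei count, and values are medians of duplicate plates.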

[2] = tested on: A-427
Procedure, shortened: as §1

[3] = tested on: COR-L23
Procedure, shortened: as §1

[4] = tested on: H3255
Procedure, shortened: as §1

[5] = tested on: HCC-44
Procedure, shortened: as §1

[6] = tested on: LC-2-ad
Procedure, shortened: as §1

[7] = tested on: LCLC-97TM1
Procedure, shortened: as §1

[8] = tested on: LK-2
Procedure, shortened: as §1

[9] = tested on: LU99A
Procedure, shortened: as §1

[10] = tested on: NCI-H1650
Procedure, shortened: as §1

[11] = tested on: NCI-H1793
Procedure, shortened: as §1

[12] = tested on: NCI-H2228
Procedure, shortened: as §1

[13] = tested on: NCI-H2347
Procedure, shortened: as §1

[14] = tested on: NCI-H23
Procedure, shortened: as §1

[15] = tested on: NCI-H460
Procedure, shortened: as §1

[16] = tested on: NCI-H596
Procedure, shortened: as §1

[17] = tested on: NCI-H727
Procedure, shortened: as §1

[18] = tested on: PC-14
Procedure, shortened: as §1

[19] = tested on: PC-3 [JPC-3]
Procedure, shortened: as §1

[20] = tested on: SW 1573
Procedure, shortened: as §1

CCN(CC)CCCCNc1ncc2cc(-c3cc(OC)cc(OC)c3)c(NC(=O)NC(C)(C)C)nc2n1 + CC1(C)CCC(c2ccc(Cl)cc2)=C(CN2CCN(c3ccc(C(=O)NS(=O)(=O)c4ccc(N[C@H](CCN5CCOCC5)CSc5ccccc5)c(S(=O)(=O)C(F)(F)F)c4)cc3)CC2)C1 [Navitoclax] (partner 0.5 µM)
relative viability ([1]; first compound 0.01 µM): 1.17
relative viability ([1]; first compound 0.03162 µM): 1.21
relative viability ([1]; first compound 0.1 µM): 1.24
relative viability ([1]; first compound 0.3162 µM): 1.23
relative viability ([1]; first compound 1 µM): 1.19
relative viability ([2]; first compound 0.01 µM): 0.991
relative viability ([2]; first compound 0.03162 µM): 1.03
relative viability ([2]; first compound 0.1 µM): 1.11
relative viability ([2]; first compound 0.3162 µM): 1.08
relative viability ([2]; first compound 1 µM): 0.908
relative viability ([3]; first compound 0.01 µM): 1.14
relative viability ([3]; first compound 0.03162 µM): 1.12
relative viability ([3]; first compound 0.1 µM): 1.33
relative viability ([3]; first compound 0.3162 µM): 1.18
relative viability ([3]; first compound 1 µM): 1.12
relative viability ([4]; first compound 0.01 µM): 0.496
relative viability ([4]; first compound 0.03162 µM): 0.413
relative viability ([4]; first compound 0.1 µM): 0.65
relative viability ([4]; first compound 0.3162 µM): 0.729
relative viability ([4]; first compound 1 µM): 0.502
relative viability ([5]; first compound 0.01 µM): 1.01
relative viability ([5]; first compound 0.03162 µM): 0.997
relative viability ([5]; first compound 0.1 µM): 1.02
relative viability ([5]; first compound 0.3162 µM): 1.1
relative viability ([5]; first compound 1 µM): 0.937
relative viability ([6]; first compound 0.01 µM): 0.425
relative viability ([6]; first compound 0.03162 µM): 0.372
relative viability ([6]; first compound 0.1 µM): 0.558
relative viability ([6]; first compound 0.3162 µM): 0.511
relative viability ([6]; first compound 1 µM): 0.487
relative viability ([7]; first compound 0.03162 µM): 0.356
relative viability ([7]; first compound 0.1 µM): 0.503
relative viability ([7]; first compound 0.3162 µM): 0.435
relative viability ([7]; first compound 1 µM): 0.4
relative viability ([8]; first compound 0.01 µM): 0.918
relative viability ([8]; first compound 0.03162 µM): 0.841
relative viability ([8]; first compound 0.1 µM): 0.8
relative viability ([8]; first compound 0.3162 µM): 0.732
relative viability ([8]; first compound 1 µM): 0.36
relative viability ([9]; first compound 0.01 µM): 0.716
relative viability ([9]; first compound 0.03162 µM): 0.862
relative viability ([9]; first compound 0.1 µM): 0.949
relative viability ([9]; first compound 0.3162 µM): 0.85
relative viability ([9]; first compound 1 µM): 0.69
relative viability ([10]; first compound 0.01 µM): 1.12
relative viability ([10]; first compound 0.03162 µM): 1.03
relative viability ([10]; first compound 0.1 µM): 1.17
relative viability ([10]; first compound 0.3162 µM): 0.784
relative viability ([10]; first compound 1 µM): 0.7
relative viability ([11]; first compound 0.01 µM): 0.988
relative viability ([11]; first compound 0.1 µM): 0.326
relative viability ([11]; first compound 0.3162 µM): 0.439
relative viability ([11]; first compound 1 µM): 0.326
relative viability ([12]; first compound 0.01 µM): 0.841
relative viability ([12]; first compound 0.03162 µM): 0.866
relative viability ([12]; first compound 0.1 µM): 0.979
relative viability ([12]; first compound 0.3162 µM): 0.884
relative viability ([12]; first compound 1 µM): 0.541
relative viability ([13]; first compound 0.01 µM): 0.817
relative viability ([13]; first compound 0.03162 µM): 0.823
relative viability ([13]; first compound 0.1 µM): 0.762
relative viability ([13]; first compound 0.3162 µM): 0.833
relative viability ([13]; first compound 1 µM): 0.676
relative viability ([14]; first compound 0.01 µM): 0.744
relative viability ([14]; first compound 0.03162 µM): 0.85
relative viability ([14]; first compound 0.1 µM): 1.09
relative viability ([14]; first compound 0.3162 µM): 0.921
relative viability ([14]; first compound 1 µM): 0.843
relative viability ([15]; first compound 0.01 µM): 1.3
relative viability ([15]; first compound 0.03162 µM): 1.18
relative viability ([15]; first compound 0.3162 µM): 1.21
relative viability ([15]; first compound 1 µM): 1.09
relative viability ([16]; first compound 0.01 µM): 0.912
relative viability ([16]; first compound 0.03162 µM): 1.02
relative viability ([16]; first compound 0.1 µM): 0.919
relative viability ([16]; first compound 0.3162 µM): 0.797
relative viability ([16]; first compound 1 µM): 0.656
relative viability ([17]; first compound 0.01 µM): 0.443
relative viability ([17]; first compound 0.03162 µM): 0.336
relative viability ([17]; first compound 0.1 µM): 0.428
relative viability ([17]; first compound 0.3162 µM): 0.454
relative viability ([17]; first compound 1 µM): 0.387
relative viability ([18]; first compound 0.01 µM): 1.11
relative viability ([18]; first compound 0.03162 µM): 1.06
relative viability ([18]; first compound 0.1 µM): 1.15
relative viability ([18]; first compound 0.3162 µM): 1.01
relative viability ([18]; first compound 1 µM): 0.985
relative viability ([19]; first compound 0.01 µM): 0.827
relative viability ([19]; first compound 0.03162 µM): 0.785
relative viability ([19]; first compound 0.1 µM): 0.855
relative viability ([19]; first compound 0.3162 µM): 0.951
relative viability ([19]; first compound 1 µM): 1.02
relative viability ([20]; first compound 0.01 µM): 0.958
relative viability ([20]; first compound 0.03162 µM): 0.963
relative viability ([20]; first compound 0.1 µM): 1.31
relative viability ([20]; first compound 0.3162 µM): 1.25
relative viability ([20]; first compound 1 µM): 1.01
